Measured values published in patent US20110152267A1, “Compositions and Methods for Treating Hyperproliferative Disorders” (Texas Tech University System, priority 2009, published 2011).

Tests used:
Format in all cases: cell-based, human
[1] = tested on: RPMI-8226 Multiple Myeloma cell line; test: DIMSCAN cytotoxicity, fenretinide + L-threo-sphinganines 3:1 (Example B2); details: 96 h
Summary of the method: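 Fenretinide and L-threo-sphinganines tested alone and at 3:1 fenretinide:sphinganine on RPMI-8226 cells, 12 wells per concentration, 96 h at 37° C. Viable cells quantified by fluorescein diacetate (8 microgram/mL) fluorescence with eosin Y quenching; survival fraction versus vehicle controls, synergy by Chou-Talalay combination index.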

[2] = tested on: U-118 Glioblastoma cell line; test: DIMSCAN cytotoxicity, fenretinide + L-threo-sphinganines 3:1 (Example B5); design: key to CI (Combination Index): CI<0.9 synergy, 0.9-1.1 additive, >1.1 antagonistic; details: U-118 MG, 96 h
Summary of the method: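 U-118 cells plated at 2000–10,000/well, attached overnight, then given fenretinide and L-threo-sphinganines alone or at 3:1 fenretinide:sphinganine for 96 h at 37 °C/5% CO2. Viable cells quantified by DIMSCAN (fluorescein diacetate, eosin Y quench) as survival fraction versus vehicle; synergy by Chou-Talalay combination index.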

[3] = tested on: T98G Glioblastoma multiforme cell line; test: DIMSCAN cytotoxicity, fenretinide + L-threo-sphinganines 3:1 (Example B6); details: 96 h
Summary of the method: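 T98G cells (2000–10,000/well) attached overnight, then exposed 96 h at 37° C. to fenretinide and L-threo-sphinganines alone or at 3:1 fenretinide:sphinganine, 12 wells per concentration. Viable cells quantified by fluorescein diacetate (8 microgram/mL)/eosin Y digital imaging microscopy as survival fraction versus vehicle; synergy by Chou-Talalay Combination Index.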

[4] = tested on: SJ-G2 Glioblastoma cell line; test: DIMSCAN cytotoxicity, fenretinide + L-threo-sphinganines 3:1 (Example B8); details: 96 h
Summary of the method: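 SJ-G2 glioblastoma cells were exposed for 96 h at 37 °C to fenretinide and L-threo-sphinganines, alone and at a 3:1 fenretinide:sphinganine ratio, with 12 wells per concentration. Viable cells were measured by DIMSCAN (fluorescein diacetate uptake with eosin Y quench), giving survival fraction versus vehicle. Combination interaction was assessed by Chou-Talalay combination index.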

[5] = tested on: HT-29 colorectal adenocarcinoma cell line; test: DIMSCAN cytotoxicity, fenretinide + L-threo-sphinganines 3:1 (Example B10); details: 96 h
Summary of the method: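 HT-29 cells exposed 96 h at 37° C to fenretinide and L-threo-sphinganines alone or at 3:1 fenretinide:sphinganine, 12 wells per concentration. Viable cells quantified by DIMSCAN (fluorescein diacetate, eosin Y quench); survival fraction versus vehicle controls, combinations assessed by Chou-Talalay combination index.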

[6] = tested on: A-2058 melanoma cell line; test: DIMSCAN cytotoxicity, fenretinide + L-threo-sphinganines 3:1 (Example B11); details: 96 h
Summary of the method: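 A-2058 human melanoma cells plated at 2000–10,000/well, attached overnight, then exposed 96 h at 37 °C to fenretinide and L-threo-sphinganines alone or at 3:1 fenretinide:sphinganine. Viable cells quantified by DIMSCAN (fluorescein diacetate 8 µg/mL, eosin Y quench); survival fraction vs vehicle controls; synergy by Chou-Talalay combination index.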

[7] = tested on: A-549 lung adenocarcinoma cell line; test: DIMSCAN cytotoxicity, fenretinide + L-threo-sphinganines 3:1 (Example B13); details: 96 h
Summary of the method: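 A-549 cells attached overnight, then exposed 96 h at 37 °C to fenretinide and L-threo-sphinganines alone or at 3:1 fenretinide:sphinganine. Viability via fluorescein diacetate with eosin Y quench, digital imaging microscopy; survival fraction versus vehicle wells, with Chou-Talalay combination index (CI<0.9 synergy).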

[8] = tested on: PC-3 prostate adenocarcinoma cell line; test: DIMSCAN cytotoxicity, fenretinide + L-threo-sphinganines 3:1 (Example B17)
Summary of the method: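 PC-3 cells were treated for 96 h at 37 °C with fenretinide plus L-threo-sphinganines at a 3:1 ratio, 12 wells per concentration. Viable cells were measured by DIMSCAN (fluorescein diacetate with eosin Y quenching) and expressed as survival fraction versus vehicle. Combination index was derived by Chou-Talalay analysis.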

[9] = 4-HPR 1.5 μM + L-threo-sphinganine 0.5 μM
[10] = 4-HPR 3 μM + L-threo-sphinganine 1 μM
[11] = 4-HPR 6 μM + L-threo-sphinganine 2 μM
[12] = 4-HPR 9 μM + L-threo-sphinganine 3 μM

SMILES: CCCCCCCCCCC[C@H](O)[C@@H](N)CO [C14]
- CI (Combination Index) [1, 9]: 0.8
- Fa (fraction affected) [1, 9]: 0.606
- CI (Combination Index) [1, 10]: 1.1
- Fa (fraction affected) [1, 10]: 0.747
- CI (Combination Index) [1, 11]: 1.0
- Fa (fraction affected) [1, 11]: 0.93
- CI (Combination Index) [1, 12]: 0.4
- Fa (fraction affected) [1, 12]: 0.994
- CI (Combination Index) [2, 9]: 1.4
- Fa (fraction affected) [2, 9]: 0.318
- CI (Combination Index) [2, 10]: 1.2
- Fa (fraction affected) [2, 10]: 0.586
- CI (Combination Index) [2, 11]: 1.2
- Fa (fraction affected) [2, 11]: 0.814
- CI (Combination Index) [2, 12]: 0.4
- Fa (fraction affected) [2, 12]: 0.988
- CI (Combination Index) [3, 9]: 1.0
- Fa (fraction affected) [3, 9]: 0.544
- CI (Combination Index) [3, 10]: 1.6
- Fa (fraction affected) [3, 10]: 0.602
- CI (Combination Index) [3, 11]: 1.0
- Fa (fraction affected) [3, 11]: 0.839
- CI (Combination Index) [3, 12]: 0.5
- Fa (fraction affected) [3, 12]: 0.941
- CI (Combination Index) [4, 9]: 1.3
- Fa (fraction affected) [4, 9]: 0.103
- CI (Combination Index) [4, 10]: 1.3
- Fa (fraction affected) [4, 10]: 0.307
- CI (Combination Index) [4, 11]: 1.4
- Fa (fraction affected) [4, 11]: 0.575
- CI (Combination Index) [4, 12]: 1.0
- Fa (fraction affected) [4, 12]: 0.845
- CI (Combination Index) [5, 9]: 1.0
- Fa (fraction affected) [5, 9]: 0.215
- CI (Combination Index) [5, 10]: 1.3
- Fa (fraction affected) [5, 10]: 0.598
- CI (Combination Index) [5, 11]: 1.8
- Fa (fraction affected) [5, 11]: 0.822
- CI (Combination Index) [5, 12]: 1.4
- Fa (fraction affected) [5, 12]: 0.982
- CI (Combination Index) [6, 9]: 1.1
- Fa (fraction affected) [6, 9]: 0.045
- CI (Combination Index) [6, 10]: 1.2
- Fa (fraction affected) [6, 10]: 0.088
- CI (Combination Index) [6, 11]: 1.4
- Fa (fraction affected) [6, 11]: 0.193
- CI (Combination Index) [6, 12]: 1.3
- Fa (fraction affected) [6, 12]: 0.650
- CI (Combination Index) [7, 9]: 1
- Fa (fraction affected) [7, 9]: 0.01
- CI (Combination Index) [7, 10]: 1.0
- Fa (fraction affected) [7, 10]: 0.02
- CI (Combination Index) [7, 11]: 1.1
- Fa (fraction affected) [7, 11]: 0.072
- CI (Combination Index) [7, 12]: 0.5
- Fa (fraction affected) [7, 12]: 0.461
- CI [8, 9]: 0.7
- Fa [8, 9]: 0.192
- CI [8, 10]: 1.0
- Fa [8, 10]: 0.283
- CI [8, 11]: 1.3
- Fa [8, 11]: 0.426
- CI [8, 12]: 1.2
- Fa [8, 12]: 0.634

SMILES: CCCCCCCCCCCCCCC[C@H](O)[C@@H](N)CO [C18, (2S,3S)-2-amino-1,3-octadecanediol, reference compound]
- CI (Combination Index) [1, 9]: 1.0
- Fa (fraction affected) [1, 9]: 0.616
- CI (Combination Index) [1, 10]: 0.9
- Fa (fraction affected) [1, 10]: 0.879
- CI (Combination Index) [1, 11]: 0.2
- Fa (fraction affected) [1, 11]: 0.997
- CI (Combination Index) [1, 12]: >0.1
- Fa (fraction affected) [1, 12]: 1
- CI (Combination Index) [2, 9]: 1.4
- Fa (fraction affected) [2, 9]: 0.317
- CI (Combination Index) [2, 10]: 2.3
- Fa (fraction affected) [2, 10]: 0.407
- CI (Combination Index) [2, 11]: 0.5
- Fa (fraction affected) [2, 11]: 0.976
- CI (Combination Index) [2, 12]: 0.3
- Fa (fraction affected) [2, 12]: 0.995
- CI (Combination Index) [3, 9]: 0.786
- Fa (fraction affected) [3, 9]: 0.657
- CI (Combination Index) [3, 10]: 1.316
- Fa (fraction affected) [3, 10]: 0.701
- CI (Combination Index) [3, 11]: 0.767
- Fa (fraction affected) [3, 11]: 0.906
- CI (Combination Index) [3, 12]: 0.023
- Fa (fraction affected) [3, 12]: 0.999
- CI (Combination Index) [4, 9]: 0.7
- Fa (fraction affected) [4, 9]: 0.437
- CI (Combination Index) [4, 10]: 0.7
- Fa (fraction affected) [4, 10]: 0.728
- CI (Combination Index) [4, 11]: 0.5
- Fa (fraction affected) [4, 11]: 0.950
- CI (Combination Index) [4, 12]: 0.6
- Fa (fraction affected) [4, 12]: 0.958
- CI (Combination Index) [5, 9]: 0.9
- Fa (fraction affected) [5, 9]: 0.243
- CI (Combination Index) [5, 10]: 0.7
- Fa (fraction affected) [5, 10]: 0.756
- CI (Combination Index) [5, 11]: 0.5
- Fa (fraction affected) [5, 11]: 0.983
- CI (Combination Index) [5, 12]: 0.3
- Fa (fraction affected) [5, 12]: 0.999
- CI (Combination Index) [6, 9]: >1
- Fa (fraction affected) [6, 9]: 0.001
- CI (Combination Index) [6, 10]: >1
- Fa (fraction affected) [6, 10]: 0.01
- CI (Combination Index) [6, 11]: >1
- Fa (fraction affected) [6, 11]: 0.099
- CI (Combination Index) [6, 12]: 1.22
- Fa (fraction affected) [6, 12]: 0.815
- CI (Combination Index) [7, 9]: 1.0
- Fa (fraction affected) [7, 9]: 0.012
- CI (Combination Index) [7, 10]: 1.0
- Fa (fraction affected) [7, 10]: 0.05
- CI (Combination Index) [7, 11]: 1.0
- Fa (fraction affected) [7, 11]: 0.200
- CI (Combination Index) [7, 12]: 0.6
- Fa (fraction affected) [7, 12]: 0.700
- CI [8, 9]: 1.1
- Fa [8, 9]: 0.202
- CI [8, 10]: 1.4
- Fa [8, 10]: 0.346
- CI [8, 11]: 1.1
- Fa [8, 11]: 0.719
- CI [8, 12]: 0.7
- Fa [8, 12]: 0.918
